These results are taken from ChEMBL document CHEMBL1221200, “Diarylquinolines target subunit c of mycobacterial ATP synthase” (Nat Chem Biol, 2007).

Experiment [1] has as its system ATP synthase (Mycobacterium tuberculosis), P9WPU9+P9WPU5+P9WPU7+P9WPV5+P9WPS1+P9WPV1+P9WPV7+P9WPV3 [A63P]. As to the kind of experiment: Inhibition of Mycobacterium tuberculosis isolate BK12 ATP synthase subunit c A63P mutant-mediated ATP synthesis after 24 hrs by luminometry.
Experiment [2] has as its system ATP synthase (Mycobacterium tuberculosis), P9WPU9+P9WPU5+P9WPU7+P9WPV5+P9WPS1+P9WPV1+P9WPV7+P9WPV3 [I66M]. Put plainly: Inhibition of Mycobacterium tuberculosis isolate LV13 ATP synthase subunit c I66M mutant-mediated ATP synthesis after 24 hrs by luminometry.
The test system of experiment [3] is Mycobacterium tuberculosis. Put plainly: Antimicrobial activity against wild-type Mycobacterium tuberculosis isolate BK12 expressing ATP synthase AtpE A63P mutant protein assessed as growth inhibition in early log-phase by 7H10 agar dilution method. The experiment is classed as functional, organism-based.
The subject of experiment [4] is Mycobacterium tuberculosis. As to the kind of experiment: Antimicrobial activity against wild-type Mycobacterium tuberculosis isolate LV13 expressing ATP synthase AtpE I66M mutant protein assessed as growth inhibition in early log-phase by 7H10 agar dilution method. In kind it is functional, organism-based.
The test system of experiment [5] is Mycobacterium tuberculosis. As to the kind of experiment: Antimicrobial activity against Mycobacterium tuberculosis H37Rv isolate LV13 expressing ATP synthase atpE I66M mutant protein by 7H9 broth dilution method. In kind it is functional.
In experiment [6] the test system is Mycobacterium tuberculosis. Put plainly: Antimicrobial activity against Mycobacterium tuberculosis H37Rv isolate BK12 expressing ATP synthase atpE A63P mutant protein by 7H9 broth dilution method. In kind it is functional.
The subject of experiment [7] is Mycobacterium tuberculosis. As to the kind of experiment: Antimicrobial activity against Mycobacterium tuberculosis H37Rv isolate LV13 expressing ATP synthase atpE I66M mutant protein by 7H10 broth dilution method. The experiment is classed as functional.
For experiment [8], the system named is Mycobacterium tuberculosis. Put plainly: Antimicrobial activity against Mycobacterium tuberculosis H37Rv isolate BK12 expressing ATP synthase atpE A63P mutant protein by 7H10 broth dilution method. In kind it is functional.
Experiment [9] relates to Mycobacterium tuberculosis. As to the kind of experiment: Ratio of MIC for Mycobacterium tuberculosis H37Rv isolate LV13 expressing ATP synthase atpE I66M mutant protein to MIC for Mycobacterium tuberculosis H37Rv. In kind it is functional.
Experiment [10] concerns Mycobacterium tuberculosis. As to the kind of experiment: Ratio of MIC for Mycobacterium tuberculosis H37Rv isolate BK12 expressing ATP synthase atpE A63P mutant protein to MIC for Mycobacterium tuberculosis H37Rv. In kind it is functional.

In brackets after ≈: the same amount, converted by molar mass. Activity calls are given as the source filed them. No cut-off for these calls is given here.

For `COc1nc2ccc(Br)cc2cc1[C@@H](c1ccccc1)[C@@](O)(CCN(C)C)c1cccc2ccccc12`, the inhibition result in experiment [1] and in experiment [2] was “inactive” each time. Further, the result in experiment [3] and in [4] was Active.
For the molecule `COc1nc2ccc(Br)cc2cc1[C@@H](c1ccccc1)[C@@](O)(CCN(C)C)c1cccc2ccccc12` [BEDAQUILINE], the MIC amounted to 11 µg/mL (≈ 19.8 µM) in experiment [5], 11 µg/mL (≈ 19.8 µM) in experiment [6], 13 µg/mL (≈ 23.4 µM) in experiment [7] and 13 µg/mL (≈ 23.4 µM) in experiment [8]. For the same molecule, the Ratio in [9] and in experiment [10] was over 200 each time.
